Test results taken from patent US4957920A, “Benzimidazoles, and pharmaceutical preparations containing these compounds” (priority 1987, dated 1990).
Where two headings read alike, the source gives them in different places.

Key:
[1] = cited from earlier work
[2] = test system: isolated, perfused guinea pig hearts; assay: Haemodynamic effects on isolated, perfused Langendorff hearts (guinea pigs); details: Cavia porcellus
Text: (§1) The benzimidazoles according to the invention corresponding to the general formula I combine good oral availability with interesting pharmacological properties, especially cardiovascular effects, in particular positive inotropic and blood pressure lowering effects. They show an excellent cardiotonic activity in numerous pharmacological standard models, for example in vitro in the isolated, perfused Langendorff heart or in vivo on narcotised guinea pigs, where they produce a marked increase in contractility.
1. Investigations on isolated, perfused Langendorff Hearts (guinea pigs)
The arrangement of Langendorff was modified according to P. R. Beckett (J. Pharm. Pharmacol. 22, 818 (1970)) and R. M. Abel and R. L. Reis (Circ. Res. 27, 961 (1970)) to determine the haemodynamic effects of the compounds according to the invention on isolated, perfused guinea pig hearts. The spontaneously beating guinea pig hearts were catheterised in the left ventricle and perfused with solutions of the test substances in physiological saline solution/ethanol (9:1) at concentrations of 10^-4 to 10^-8 mol/1 at a constant perfusion pressure of 60 mm Hg.

narcotised guinea pigs = assay: Haemodynamic characterisation on narcotised guinea pigs (in vivo model); design: species or system guinea pig; details: 10 μg/kg/min, infused through left jugular vein, under β-blockage (metoprolol 2 mg/kg i.m.)
Text: as §1
2. Haemodynamic Characterisation on Narcotised Guinea Pigs (in vivo model)
The animals were narcotised with urethane (1.5 g/kg). The trachea was cannulated for volume controlled respiration. The two carotid arteries were then exposed operatively. A Tip catheter (3F) was introduced through the right carotid artery and moved forwards through the ascending aorta into the left ventricle while the pressure was continuously recorded. Successful passage through the aortic valves is recognised by the typical left ventricular pressure curve. A thermistor probe (3F, F. Edwards) is pushed forwards into the aortic arch through the left carotid for thermodilution. The thermistor probe also has a lumen for the recording of arterial blood pressure. A catheter is passed through the right jugular vein to be placed in front of the right auricle for application of the cold injectate (0.2 ml of 0.9% NaCl, 15° C.). The ECG is recorded in the first shunt. All substances are dissolved in physiological saline solution and infused through the left jugular vein (infusion volume 0 02 ml/min). The drug is applied after haemodynamic stabilisation and under β-blockage (metoprolol 2 mg/kg i.m.). All circulatory parameters are continuously registered on a direct recorder. The pulse frequency is calculated from the ECG, the contractility (dp/dt) is calculated from the […] and the volumetric cardiac output per unit time is calculated from the thermodilution curve.

[3] = biological target: T1, phosphodiesterase type III obtained from ox heart (Bos taurus, UniProt A0A3Q1M1E8); assay: Inhibition of phosphodiesterase type III, Method B (Appleman and Terasaki); format: biochemical; details: read-out: percentage inhibition of FDE-III activity; for inhibition at 100 µM: 10^-4 mol/l; for inhibition at 10 µM: 10^-5 mol/l; for inhibition at 1 µM: 10^-6 mol/l
T1 sequence (A0A3Q1M1E8 1-1126): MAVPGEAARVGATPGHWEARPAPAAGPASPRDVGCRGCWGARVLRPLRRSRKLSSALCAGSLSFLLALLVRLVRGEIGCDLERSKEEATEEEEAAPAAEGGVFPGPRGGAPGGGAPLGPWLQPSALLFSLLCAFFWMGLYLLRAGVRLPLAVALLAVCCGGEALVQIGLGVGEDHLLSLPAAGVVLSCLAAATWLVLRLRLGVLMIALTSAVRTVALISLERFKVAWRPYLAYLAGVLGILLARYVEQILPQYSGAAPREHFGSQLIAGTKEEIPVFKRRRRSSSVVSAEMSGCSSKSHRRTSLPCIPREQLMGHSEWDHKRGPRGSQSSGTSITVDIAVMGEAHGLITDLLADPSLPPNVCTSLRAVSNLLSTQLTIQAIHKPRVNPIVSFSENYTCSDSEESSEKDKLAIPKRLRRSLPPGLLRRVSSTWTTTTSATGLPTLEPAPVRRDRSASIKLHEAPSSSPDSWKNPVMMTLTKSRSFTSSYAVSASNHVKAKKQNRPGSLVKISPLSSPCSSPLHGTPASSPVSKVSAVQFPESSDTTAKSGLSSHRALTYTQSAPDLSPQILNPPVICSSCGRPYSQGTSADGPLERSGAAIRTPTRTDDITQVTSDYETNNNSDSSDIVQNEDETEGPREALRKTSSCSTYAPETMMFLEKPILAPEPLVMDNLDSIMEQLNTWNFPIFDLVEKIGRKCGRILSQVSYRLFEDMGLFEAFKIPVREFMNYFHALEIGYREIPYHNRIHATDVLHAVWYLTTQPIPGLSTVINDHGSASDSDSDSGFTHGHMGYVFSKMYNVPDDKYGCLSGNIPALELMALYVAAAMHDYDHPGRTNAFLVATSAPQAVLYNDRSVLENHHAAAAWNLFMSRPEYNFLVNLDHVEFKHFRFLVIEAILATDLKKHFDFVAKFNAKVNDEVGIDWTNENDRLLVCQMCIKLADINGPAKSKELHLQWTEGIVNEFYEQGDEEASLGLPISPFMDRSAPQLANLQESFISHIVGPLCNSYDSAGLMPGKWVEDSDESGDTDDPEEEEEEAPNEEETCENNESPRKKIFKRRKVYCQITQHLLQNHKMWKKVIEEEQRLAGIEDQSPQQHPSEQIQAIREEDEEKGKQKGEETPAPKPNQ
Experimental: (§2) The inhibitory action of the compounds according to the invention on phosphodiesterase was tested on phosphodiesterase type III obtained from ox heart (Sigma Chemie, BRD) by the methods of W. Diederen and H. Weisenberger (Arzneim.-Forschumg 31, 177 (1981)) (Method A) and of M. A. Appleman and W. L. Terasaki (Advances in Cyclic Nucleotide Research, volume 5, Raven Press, New York (1975), page 153) (Method B).

[4] = biological target: T1, phosphodiesterase type III obtained from ox heart; assay: Inhibition of phosphodiesterase type III, Method A (Diederen and Weisenberger); format: biochemical; details: read-out: percentage inhibition of FDE-III activity; for inhibition at 10 µM: 10^-5 mol/l; for inhibition at 1 µM: 10^-6 mol/l; for inhibition at 0.1 µM: 10^-7 mol/l
Experimental: as §2

[5] = test system: phosphodiesterase type III; details: heart muscle cells; cited from earlier work
[6] = concentration range 10^-7 - 10^-5 mol/l, read-out: Maximum percentage changes compared with controls: Cardiac Frequency
[7] = concentration range 10^-7 - 10^-5 mol/l, read-out: Maximum percentage changes compared with controls: Contractility dp/dt
[8] = concentration range 10^-7 - 10^-5 mol/l, read-out: Maximum percentage changes compared with controls: Coronary Flow
[9] = due to the mechanisms of their action

| inhibition at 100 µM [3] [%] | inhibition at 10 µM [3] [%] | inhibition at 1 µM [3] [%] | inhibition at 10 µM [4] [%] | inhibition at 1 µM [4] [%] | inhibition at 0.1 µM [4] [%] | inhibition at 0.1 µM ([3]; 10^-7 mol/l) [%] | inhibition at 100 µM ([4]; 10^-4 mol/l) [%] | SMILES | undesirable side effects ([1]; in vivo) | Emax [2, 6] [%] | Emax [2, 7] [%] | Emax [2, 8] [%] | Maximum percentage changes compared with initial values: Blood Pressure sys. (narcotised guinea pigs) [%] | Maximum percentage changes compared with initial values: Cardiac Frequency (narcotised guinea pigs) | Maximum percentage changes compared with initial values: Contractility dp/dt (narcotised guinea pigs) | positive inotropic effect by inhibiting phosphodiesterases, in particular type III [5] | undesirable side effects [1, 9] | Emax ([2]; concentration range 10^-8 - 10^-4 mol/l, read-out: Maximum percentage changes compared with controls: Cardiac Frequency) [%] | Emax ([2]; concentration range 10^-8 - 10^-4 mol/l, read-out: Maximum percentage changes compared with controls: Contractility dp/dt) [%] | Emax ([2]; concentration range 10^-8 - 10^-4 mol/l, read-out: Maximum percentage changes compared with controls: Coronary Flow) [%] |
| --- | --- | --- | --- | --- | --- | --- | --- | --- | --- | --- | --- | --- | --- | --- | --- | --- | --- | --- | --- | --- |
| 57 | 19 | 5 | 30 | 15 | 7 |  |  | COc1ccc(-c2nc3ccc(C4=NNC(=O)CC4C)cc3[nH]2)cc1 (centres unmarked) [Pimobendane, reference compound] | undesirable side effects due to the mechanisms of their action, such as thrombocytopaenia or gastrointestinal disturbances | 8 | 99 | 76 | -51 | +3% | +10% | positive inotropic effect |  |  |  |  |
|  |  |  |  |  |  |  |  | Cc1[nH]c(=O)c(C#N)cc1-c1ccncc1 [milrinone] |  |  |  |  |  |  |  | positive inotropic effect | undesirable side effects due to the mechanisms of their action, such as thrombocytopaenia or gastrointestinal disturbances |  |  |  |
| 4 | 0 | 0 | 7 | 0 | 0 | 0 | 10 | CC1CC(=O)NN=C1c1ccc2[nH]c(CCCN)nc2c1 (centres unmarked) [Example 1] |  |  |  |  | -25 | +20% | +38% |  |  | 11 | 76 | 25 |
|  |  |  |  |  |  |  |  | CC1CC(=O)NN=C1c1ccc2[nH]c(CCCNC(=N)NCCCc3c[nH]cn3)nc2c1 (centres unmarked) [Example 6] |  | 20 | 161 | 52 | -15 | +17% | +97% |  |  |  |  |  |
|  |  |  |  |  |  |  |  | Nc1cc(-c2ccncc2)c[nH]c1=O [amrinone] |  |  |  |  |  |  |  | positive inotropic effect | undesirable side effects due to the mechanisms of their action, such as thrombocytopaenia or gastrointestinal disturbances |  |  |  |
